One series has as its target SLCO2A1 S346A mutant (Homo sapiens, UniProt Q92959, S346A). The format is cell-based.
The target of another series is SLCO2A1 W565F mutant (Homo sapiens, UniProt Q92959, W565F). As to the kind of experiment: 6-CF uptake assay, HEK293F cells expressing SLCO2A1 W565F. The format is cell-based. The conditions noted are these: 50 μM 6-CF.
For another series, the target named is SLCO2A1 C143A mutant (Homo sapiens, UniProt Q92959, C143A). Description: 6-CF uptake assay, HEK293F cells expressing SLCO2A1 C143A. The class given is cell-based. The settings on record: C143A mutant vs WT.
A further series concerns the target SLCO2A1 C448A mutant (Homo sapiens, UniProt Q92959, C448A). As to the kind of experiment: 6-CF uptake assay, HEK293F cells expressing SLCO2A1 C448A. The class given is cell-based. The settings on record: C448A mutant vs WT.
In a further series the target is SLCO2A1 Y90A mutant (Homo sapiens, UniProt Q92959, Y90A). Description: 6-CF uptake assay, HEK293F cells expressing SLCO2A1 Y90A. The format is cell-based. The conditions noted are these: 50 μM 6-CF.
In another series the target is SLCO2A1 C420F mutant (Homo sapiens, UniProt Q92959, C420F). Description: 6-CF uptake assay, HEK293F cells expressing SLCO2A1 C420F. The format is cell-based. The conditions noted are these: C420F mutant vs WT.
The target in a further series is SLCO2A1 R445C mutant (Homo sapiens, UniProt Q92959, R445C). As to the kind of experiment: 6-CF uptake assay, HEK293F cells expressing SLCO2A1 R445C. The class given is cell-based. The conditions noted are these: 50 μM 6-CF.
A further series concerns the target SLCO2A1 E465K mutant (Homo sapiens, UniProt Q92959, E465K). As to the kind of experiment: 6-CF uptake assay, HEK293F cells expressing SLCO2A1 E465K. The format is cell-based. The conditions noted are these: E465K mutant vs WT.
Series [1] relates to SLCO2A1. The settings on record: read-out: Km for 6-CF reported in a previous study; cited from earlier work.
In series [2] the test system is SLCO2A1. The settings on record: read-out: IC50 in competitively inhibiting radioactive PGE2; pH 7.4; cited from earlier work.
Another series has as its target human SLCO2A1 (Homo sapiens, UniProt Q92959). Description: 6-CF uptake assay in HEK293F cells expressing SLCO2A1 WT.

Consider two molecules from paper PMC12398505 (Nature Communications, 2025).

As a reminder, the Km is the concentration of substrate that gives half-maximal velocity. 6-Carboxyfluorescein [6-CF]: the “increase in 6-CF uptake activity” value at SLCO2A1 S346A mutant is on record as 1.5 fold. Also, the figures for the “6-CF uptake (percentage of SLCO2A1-WT)” value at SLCO2A1 W565F mutant, at SLCO2A1 Y90A mutant and on SLCO2A1 R445C mutant were around 50%, 60% and 60%, respectively. Further, the “reduction of the 6-CF uptake activity” value is “approximately 80%” on SLCO2A1 C143A mutant and around 55% at SLCO2A1 C448A mutant. Besides, the “decrease of 6-CF uptake activity” value at SLCO2A1 C420F mutant and at SLCO2A1 E465K mutant was “more than 80%” in each case. In the series with SLCO2A1 [1], the Michaelis constant (Km) was 270 ± 40.7 µM.
In general, IC50 refers to the concentration needed to halve the response being measured. Consider `Cc1ccc(C(=O)Nc2ccc(S(=O)(=O)O)c3cc(S(=O)(=O)O)cc(S(=O)(=O)O)c23)cc1NC(=O)c1cccc(NC(=O)Nc2cccc(C(=O)Nc3cc(C(=O)Nc4ccc(S(=O)(=O)O)c5cc(S(=O)(=O)O)cc(S(=O)(=O)O)c45)ccc3C)c2)c1` [suramin], for which the results for the IC50 in the series with SLCO2A1 [2] and on human SLCO2A1 were 0.17 µM and 2.21 ± 0.37 µM, respectively. For the same molecule, on human SLCO2A1 (IC50 2.21 μM vs 0.17 μM), the “IC50 (6-CF uptake) relative to IC50 (radioactive PGE2, pH 7.4)” value stood at 13 fold.
